± gives the expanded uncertainty stated by the source.
Tests used:
[1] = 298.15 K, 101.33 kPa, Liquid; for mass density: Pycnometric method; for speed of sound: Sing-around technique in a fixed-path interferometer
[2] = xn = mol fraction of the nth substance listed; conditions: 298.15 K, 101 kPa, Liquid, Sing-around technique in a fixed-path interferometer

## CCCCOCCOCCOCCCC [5,8,11-trioxapentadecane]
[1]
  mass density: 878.55 ± 1.3 kg/m3
  speed of sound: 1270.1 ± 2.1 m/s

## CCCCOCCOCCO [3,6-dioxa-1-decanol]
[1]
  mass density: 947.98 ± 1.5 kg/m3
  speed of sound: 1358.9 ± 2.1 m/s

## CCOCCOCCOCC [diethylene glycol diethyl ether] + CCCN
[2]; x1 = 0.0035
  speed of sound: 1214.7 ± 2.1 m/s
[2]; x1 = 0.0108
  speed of sound: 1214.5 ± 2.1 m/s
[2]; x1 = 0.025
  speed of sound: 1214 ± 2.1 m/s
[2]; x1 = 0.0591
  speed of sound: 1214.1 ± 2.1 m/s
[2]; x1 = 0.0865
  speed of sound: 1214.7 ± 2.1 m/s
[2]; x1 = 0.1134
  speed of sound: 1215.2 ± 2.1 m/s
[2]; x1 = 0.1662
  speed of sound: 1217.3 ± 2.1 m/s
[2]; x1 = 0.2091
  speed of sound: 1218.8 ± 2.1 m/s
[2]; x1 = 0.2738
  speed of sound: 1221.4 ± 2.1 m/s
[2]; x1 = 0.3214
  speed of sound: 1223.8 ± 2.1 m/s
[2]; x1 = 0.3658
  speed of sound: 1225.7 ± 2.1 m/s
[2]; x1 = 0.3939
  speed of sound: 1227 ± 2.1 m/s
[2]; x1 = 0.4846
  speed of sound: 1230.5 ± 2.1 m/s
[2]; x1 = 0.5313
  speed of sound: 1232.3 ± 2.1 m/s
[2]; x1 = 0.5713
  speed of sound: 1233.8 ± 2.1 m/s
[2]; x1 = 0.6319
  speed of sound: 1235.6 ± 2.1 m/s
[2]; x1 = 0.6754
  speed of sound: 1236.7 ± 2.1 m/s
[2]; x1 = 0.7192
  speed of sound: 1238.1 ± 2.1 m/s
[2]; x1 = 0.7754
  speed of sound: 1239.4 ± 2.1 m/s
[2]; x1 = 0.8066
  speed of sound: 1240.1 ± 2.1 m/s
[2]; x1 = 0.8729
  speed of sound: 1241.7 ± 2.1 m/s
[2]; x1 = 0.9037
  speed of sound: 1242.1 ± 2.1 m/s
[2]; x1 = 0.9238
  speed of sound: 1242.2 ± 2.1 m/s
[2]; x1 = 0.9448
  speed of sound: 1242.3 ± 2.1 m/s
[2]; x1 = 0.9638
  speed of sound: 1242.4 ± 2.1 m/s
[2]; x1 = 0.9835
  speed of sound: 1242.5 ± 2.1 m/s
[2]; x1 = 0.9916
  speed of sound: 1242.2 ± 2.1 m/s

## COCCOCCOCCO [2-[2-(2-methoxyethoxy)ethoxy]ethanol]
[1]
  mass density: 1043.06 ± 1.7 kg/m3
  speed of sound: 1459 ± 2.1 m/s

## CCCCOCCOCCO [3,6-dioxa-1-decanol] + CCCN
[2]; x1 = 0.0052
  speed of sound: 1215.5 ± 2.1 m/s
[2]; x1 = 0.0133
  speed of sound: 1218.1 ± 2.1 m/s
[2]; x1 = 0.0295
  speed of sound: 1223 ± 2.1 m/s
[2]; x1 = 0.0505
  speed of sound: 1228.7 ± 2.1 m/s
[2]; x1 = 0.0779
  speed of sound: 1236.9 ± 2.1 m/s
[2]; x1 = 0.1487
  speed of sound: 1256.7 ± 2.1 m/s
[2]; x1 = 0.2053
  speed of sound: 1272.3 ± 2.1 m/s
[2]; x1 = 0.2645
  speed of sound: 1286.7 ± 2.1 m/s
[2]; x1 = 0.318
  speed of sound: 1298.6 ± 2.1 m/s
[2]; x1 = 0.378
  speed of sound: 1310.2 ± 2.1 m/s
[2]; x1 = 0.4304
  speed of sound: 1319.4 ± 2.1 m/s
[2]; x1 = 0.4767
  speed of sound: 1326 ± 2.1 m/s
[2]; x1 = 0.5226
  speed of sound: 1331.6 ± 2.1 m/s
[2]; x1 = 0.5715
  speed of sound: 1336.8 ± 2.1 m/s
[2]; x1 = 0.6306
  speed of sound: 1342.1 ± 2.1 m/s
[2]; x1 = 0.6855
  speed of sound: 1346.2 ± 2.1 m/s
[2]; x1 = 0.7347
  speed of sound: 1349.4 ± 2.1 m/s
[2]; x1 = 0.7728
  speed of sound: 1351.3 ± 2.1 m/s
[2]; x1 = 0.8152
  speed of sound: 1353.3 ± 2.1 m/s
[2]; x1 = 0.87
  speed of sound: 1355.9 ± 2.1 m/s
[2]; x1 = 0.9073
  speed of sound: 1356.7 ± 2.1 m/s
[2]; x1 = 0.9289
  speed of sound: 1357.7 ± 2.1 m/s
[2]; x1 = 0.9504
  speed of sound: 1358.3 ± 2.1 m/s
[2]; x1 = 0.9663
  speed of sound: 1358.5 ± 2.1 m/s
[2]; x1 = 0.9813
  speed of sound: 1358.7 ± 2.1 m/s

## COCCO [2-methoxyethan-1-ol]
[1]
  mass density: 960.32 ± 1.5 kg/m3
  speed of sound: 1343.3 ± 2.1 m/s

## COCCOCCOCCO [2-[2-(2-methoxyethoxy)ethoxy]ethanol] + CCCN
[2]; x1 = 0.0039
  speed of sound: 1216.1 ± 2.1 m/s
[2]; x1 = 0.0134
  speed of sound: 1219.9 ± 2.1 m/s
[2]; x1 = 0.0327
  speed of sound: 1226.9 ± 2.1 m/s
[2]; x1 = 0.0519
  speed of sound: 1234.2 ± 2.1 m/s
[2]; x1 = 0.0799
  speed of sound: 1245.4 ± 2.1 m/s
[2]; x1 = 0.108
  speed of sound: 1258 ± 2.1 m/s
[2]; x1 = 0.1484
  speed of sound: 1274.9 ± 2.1 m/s
[2]; x1 = 0.2102
  speed of sound: 1299.7 ± 2.1 m/s
[2]; x1 = 0.2743
  speed of sound: 1324.5 ± 2.1 m/s
[2]; x1 = 0.341
  speed of sound: 1347.6 ± 2.1 m/s
[2]; x1 = 0.3879
  speed of sound: 1361.8 ± 2.1 m/s
[2]; x1 = 0.4351
  speed of sound: 1375 ± 2.1 m/s
[2]; x1 = 0.5433
  speed of sound: 1398.7 ± 2.1 m/s
[2]; x1 = 0.5904
  speed of sound: 1407.5 ± 2.1 m/s
[2]; x1 = 0.6475
  speed of sound: 1416 ± 2.1 m/s
[2]; x1 = 0.6873
  speed of sound: 1422.1 ± 2.1 m/s
[2]; x1 = 0.7353
  speed of sound: 1429.5 ± 2.1 m/s
[2]; x1 = 0.7806
  speed of sound: 1434.9 ± 2.1 m/s
[2]; x1 = 0.8226
  speed of sound: 1441.1 ± 2.1 m/s
[2]; x1 = 0.8873
  speed of sound: 1448.3 ± 2.1 m/s
[2]; x1 = 0.9295
  speed of sound: 1452.6 ± 2.1 m/s
[2]; x1 = 0.9565
  speed of sound: 1456.2 ± 2.1 m/s
[2]; x1 = 0.9751
  speed of sound: 1457 ± 2.1 m/s
[2]; x1 = 0.9898
  speed of sound: 1458.5 ± 2.1 m/s
[2]; x1 = 0.9973
  speed of sound: 1458.7 ± 2.1 m/s

Reference: the NIST ThermoML archive (doi:10.1007/s10765-006-0047-0)
